Assay results published in US10729785B2, “Particles comprising protamine and RNA in combination with endosome destabilizing agents” (BioNTech SE, priority 2014, dated 2020).

System: fresh human red blood cells
Experiment: Validation of EDA: lysis of red blood cells at acidic pH (OD 405 nm of supernatant as surrogate of hemoglobin content)
Format: cell-based
Details: pH below 6, 7 hours; for damage of red blood cells / destabilization of cell membranes (OD 405 nm, hemoglobin content): 6 micrograms of peptide, 3 million human red blood cells in PBS, 37° C.

| Sequence | damage of red blood cells / destabilization of cell membranes (OD 405 nm, hemoglobin content) | relative efficacy in damaging red blood cells (peptide 2 compared with peptide 1) |
| --- | --- | --- |
| GLFEAIEGFIENGWEGMIDGWYG [peptide 1] | damages red blood cells | – |
| GLFEAIEGFIENGWEGLAEALAEALEALAAGGSC (Peptide 2) [Peptide derived from Influenza virus hemagglutinin, used as endosome destabilizing agent] | damages red blood cells | more efficacious than peptide 1 |
